Experimental data published in US20180031513A1, “CELL CHIP-BASED QUANTITATIVE ANALYSIS OF UNDIFFERENTIATED HUMAN PLURIPOTENT STEM CELL” (SOGANG UNIVERSITY RESEARCH FOUNDATION, priority 2015, published 2018).

Assays:
Type in all cases: cell-based, human
hiPSCs (SES8) = experiment: Cell chip cyclic voltammetry (ipc) and cell number of hiPSCs after YM155 treatment; settings: 24 h after dose-dependent YM155 treatment (FIG. 6A)
Method: (§1) hESCs (H9; Wicell Research Institute) and hiPSCs (SES8; (32)) were cultured in mTeSR1 medium (StemCell Technologies) under feeder-free conditions. hASMCs and i-dSMCs were cultured in smooth muscle cell-specific medium, SMCM (ScienCell Research Laboratories), and hDFs were cultured in DMEM medium (Gibco) supplemented with 10% FBS and 0.1% gentamycin. Alkaline phosphatase staining was performed according to the direction included in the Alkaline Phosphatase Kit (Sigma).
(§2) Cyclic voltammetry (CV) method was carried out using a CHIe660C Potentiostat (CH Instruments, Austin, Tex., USA). A fabricated chip, based on an Au electrode as a working electrode, an Ag/AgCl (1M KCl) as a reference electrode, and a Pt wire as a counter electrode was used. For the electrochemical measurement, cells were washed with PBS (0.01 M, PH 7.4). […] All measurements were replicated at least three times, and the cell number was calculated following detection.
(§3) The present inventors reported two kinds of small molecules for inducing the selective apoptosis of undifferentiated hPSCs in previous studies (33). […] Label-free cell chip-based quantification of residual undifferentiated hPSCs may be applied at the end stage, which is critical to determine whether any additional treatment of undifferentiated cells is required in order to ensure safety of tumor-free cell therapy. […]

hESCs (H9) = experiment: Cell chip cyclic voltammetry (ipc) of hESCs after YM155 treatment; settings: 24 h after dose-dependent YM155 treatment (FIG. 6B)
Method: as §1, §2, §3

[1] = test system: hiPSCs co-cultured with hASMCs; experiment: Cell chip ipc and colony morphology in mixed culture of hiPSCs and hASMCs after YM155 treatment
Method: (§4) Cyclic voltammetry (CV) method was carried out using a CHIe660C Potentiostat (CH Instruments, Austin, Tex., USA). A fabricated chip, based on an Au electrode as a working electrode, an Ag/AgCl (1M KCl) as a reference electrode, and a Pt wire as a counter electrode was used. For the electrochemical measurement, cells were washed with PBS (0.01 M, PH 7.4). CV detection was performed between −0.2 V and 0.6 V at 0.1 V/s in mTeSR1 (StemCell Technologies, #05850). All measurements were replicated at least three times, and the cell number was calculated following detection.
(§5) The present inventors reported two kinds of small molecules for inducing the selective apoptosis of undifferentiated hPSCs in previous studies (33). Therefore, it was predicted that, due to the induction of apoptosis by YM-155, treatment with YM-155 would decrease the number of hPSCs and thereby lower the ipc. […] Label-free cell chip-based quantification of residual undifferentiated hPSCs may be applied at the end stage, which is critical to determine whether any additional treatment of undifferentiated cells is required in order to ensure safety of tumor-free cell therapy. To mimic this situation, hiPSCs were co-cultured with hASMCs. After the co-culture in the cell chip, hiPSCs still maintained the specific colony morphology of hPSCs (FIG. 6C, left panel, black dotted line), but after 24 h of YM155 treatment, there was a typical colony morphology in hiPSCs but not in hASMCs (FIG. 6C, right panel, red dotted line).

[2] = test system: SSEA3-positive vs SSEA3-negative populations of hESC mixed culture; experiment: Active caspase-3 apoptosis FACS in mixed culture of hESCs and differentiated cells derived therefrom; settings: 40 nM, mixed culture of hESCs and differentiated cells derived therefrom (FIG. 10)
Excerpt: Cells were stained with respective fluorescent-labeled antibodies and analyzed using FACSCalibur (BD Biosciences). The following antibodies were used: Oct4 (Abcam), FITC Rat Anti-SSEA3 and PE Mouse Anti-Human TRA-1-60 (BD Pharminogen). For apoptosis assays, cells were stained using the PE Annexin V Apoptosis Detection Kit and the PE Active Caspase-3 Apoptosis Kit (BD Pharminogen) according to the manufacturer's direction.
as §5

undifferentiated hPSCs = experiment: Detection of specific cathodic peak potential (Epc) of hPSCs after YM-155 treatment; settings: after YM-155 treatment to ablate undifferentiated hPSCs
Method: as §4

**Q.** With `COCCn1c2c([n+](Cc3cnccn3)c1C)C(=O)c1ccccc1C2=O` [YM-155] as the compound, how does the “cathodic peak current (ipc)” value (hiPSCs (SES8)) read?
**A.** Its value is “markedly reduced”.

**Q.** What about the number of cells (hiPSCs (SES8)) of the same compound?
**A.** Its number of cells is “markedly reduced”.

**Q.** And the “cathodic peak current (ipc)” value (hESCs (H9))?
**A.** The value was “markedly reduced”.

**Q.** And the “ipc level upon co-culture of hiPSCs and hASMCs” value ([1]; 40 nM YM155, compared with equal number of untreated hASMCs)?
**A.** Its value is “as low as that of hASMCs”.

**Q.** What about the “hiPSC colony morphology on the cell chip” value ([1]; 24 hour after treatment with 30 nM YM155, mixed culture of hiPSCs and hASMCs (FIG. 6C)) of the same compound?
**A.** The value was “altered morphology of hiPSC colony”.

**Q.** What about the “ipc upon co-culture of hiPSCs and hASMCs” value ([1]; mixed culture, 24 hours after treatment, different doses (FIG. 6D)) of the same compound?
**A.** Its value is “gradually decreased in a dose-dependent manner”.

**Q.** And the “apoptosis by active caspase-3” value [2]?
**A.** Its value is “shown in only SSEA3-positive populations, not in SSEA3-negative populations”.

**Q.** And the “apoptosis by active caspase-3” value ([2]; listed as YM-55)?
**A.** The value was “shown in only the SSEA3+(positive) population, but not in SSEA3-(negative) population”.

**Q.** And the “specific Epc of hPSCs” value (undifferentiated hPSCs)?
**A.** Its value is “completely disappeared”.
